Patent US20250177566A1, “USE OF CHEMICAL EPIGENETIC MODIFIERS TO MODULATE GENE EXPRESSION” (The University of North Carolina at Chapel Hill, priority 2022, published 2025)
Where two headings read alike, the source gives them in different places.

Assays:
TRE3G-GFP reporter gene [1] = test: TRE3G-GFP reporter gene activation in HCT116, dCas9 + MS2-FKBP*x2 (F36V) system, flow cytometry; type: cell-based, human; design: fold change, GFP: reference not given here; conditions: for fold change, GFP (Treated vs Non-Treated): FIG. 1E, 48 hours; for fold change, GFP: 48 hrs
TRE3G-GFP reporter gene [2] = conditions: WT FKBP (MS2-FKBPx2), 48 hrs
Procedure: HCT116 cells were transfected with TRE3G-GFP, dCas9, MS2-FKPB*x2, and TRE3G gRNA or NT gRNA. After 48 hrs of 10 nM SLF*-CEMa treatment, flow cytometry was performed and mean fluorescent value was collected. […] TRE3G-GFP, dCas9, MS2-FKBP*2, TRE3G gRNA or NT gRNA were transfected into HCT116 cells. The media was changed to media with 5 nM CEM207 together with 0 nM, 50 nM, 500 nM or 5000 nM of AP1867, respectively. After 48 hrs chemical exposure, flow cytometry was performed and the mean fluorescent value was measured in each group of cells. […] FIGS. 5D and 5E are dose curves of CEMa molecules activating the GFP reporter gene in HCT116 cells using WT FKBP and dCas9 as DNA binding module. HCT116 cells were transfected with dCas9, MS2-FKBPx2, TRE3G-GFP constructs, along with TRE3G gRNA or NT gRNA. Cells were treated with different concentrations of CEMa molecules for 48 hrs before flow cytometry was conducted. […] Error bars represent the standard deviation.
To better understand the activity of SLF*-CEMa in the WT FKBP-based GFP reporter assay, a similar dose-response assay was conducted in HCT116 cells transfected with dCas9 and MS2-FKBPx2 (FIGS. 1D and 1E).
Flow cytometry. All flow cytometry experiments were performed with Attune Nxt as previously described. […] Significance was determined by Student's t-test.

CXCR4 [3] = test: CXCR4 mRNA activation in HCT116 stably expressing dCas9 and MS2-FKBP*x2, qRT-PCR; type: cell-based, human; conditions: for fold change, CXCR4 mRNA (CEM Treated vs Non-Treated): 48 hrs; for fold change, CXCR4 mRNA (CXCR4 gRNA vs NT gRNA): FIG. 3B; for fold change, CXCR4 mRNA (CXCR4 gRNA vs NT gRNA) / fold change, CXCR4 mRNA (washout vs AP1867 competition) / fold change, CXCR4 mRNA (Compare to 0 h): CEM207 25 nM; for fold change, CXCR4 mRNA (washout vs AP1867 competition): FIG. 3D; for fold change, CXCR4 mRNA (Compare to 0 h): FIG. 7A
How it was run: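 HCT116 cells stably expressing dCas9 and MS2-FKBP*x2 with CXCR4 gRNA were treated with CEMs (screen at 5 nM; 1–50 nM range). CXCR4 mRNA measured by one-step qRT-PCR after 48 h, or at 12–96 h in time course. Reversibility tested by washout after 24 h, optionally with 20 μM AP1867.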

CXCR4 [4] = test: CXCR4 mRNA activation in HCT116 stably expressing dCas9 and MS2-FKBPx2 (WT-FKBP), qRT-PCR; type: cell-based, human; conditions: FIG. 6, WT FKBP system, 48 hrs

## CC[C@H](C(=O)N1CCCC[C@H]1C(=O)O[C@H](CCc1ccc(OC)c(OC)c1)c1cccc(OCC(=O)NCCOCCOCCNC(=O)C[C@@H]2N=C(c3ccc(Cl)cc3)c3c(sc(C)c3C)-n3c(C)nnc32)c1)c1cc(OC)c(OC)c(OC)c1 [CEM207, (R)-1-(3-((14-((S)-4-(4-Chlorophenyl)-2,3,9-trimethyl-6H-thieno[3,2-f][1,2,4]triazolo[4,3-a][1,4]diazepin-6-yl)-2,13-dioxo-6,9-dioxa-3,12-diazatetradecyl)oxy)phenyl)-3-(3,4-dimethoxyphenyl) propyl(S)-1-((S)-2-(3,4,5-trimethoxyphenyl)butanoyl) piperidine-2-carboxylate]
TRE3G-GFP reporter gene [1]; TRE3G gRNA, 0.25 nM
  fold change, GFP (Treated vs Non-Treated): 2.0 fold
TRE3G-GFP reporter gene [1]; TRE3G gRNA, 0.5 nM
  fold change, GFP (Treated vs Non-Treated): 9.1 fold
TRE3G-GFP reporter gene [1]; TRE3G gRNA, 0.75 nM
  fold change, GFP (Treated vs Non-Treated): 11.5 fold
TRE3G-GFP reporter gene [1]; TRE3G gRNA, 1 nM
  fold change, GFP (Treated vs Non-Treated): 12.8 fold
TRE3G-GFP reporter gene [1]; TRE3G gRNA, 2.5 nM
  fold change, GFP (Treated vs Non-Treated): 20.6 fold
TRE3G-GFP reporter gene [1]; TRE3G gRNA, 5 nM
  fold change, GFP (Treated vs Non-Treated): 24.0 fold
TRE3G-GFP reporter gene [1]; TRE3G gRNA, 7.5 nM
  fold change, GFP (Treated vs Non-Treated): 22.5 fold
TRE3G-GFP reporter gene [1]; TRE3G gRNA, 10 nM
  fold change, GFP (Treated vs Non-Treated): 21.4 fold
TRE3G-GFP reporter gene [1]; TRE3G gRNA, 25 nM
  fold change, GFP (Treated vs Non-Treated): 21.5 fold
TRE3G-GFP reporter gene [1]; TRE3G gRNA, 50 nM
  fold change, GFP (Treated vs Non-Treated): 22.3 fold
TRE3G-GFP reporter gene [1]; TRE3G gRNA, 75 nM
  fold change, GFP (Treated vs Non-Treated): 22.5 fold
TRE3G-GFP reporter gene [1]; TRE3G gRNA, 100 nM
  fold change, GFP (Treated vs Non-Treated): 21.9 fold
TRE3G-GFP reporter gene [1]; FIG. 5A, NT gRNA, 10 nM
  fold change, GFP: 0.3 fold
TRE3G-GFP reporter gene [1]; FIG. 5A, TRE3G gRNA, 10 nM
  fold change, GFP: 12.0 fold
TRE3G-GFP reporter gene [1]; FIG. 5C, NT gRNA, 0.25 nM
  fold change, GFP: 1.1 fold
TRE3G-GFP reporter gene [1]; FIG. 5C, NT gRNA, 0.5 nM
  fold change, GFP: 1.1 fold
TRE3G-GFP reporter gene [1]; FIG. 5C, NT gRNA, 0.75 nM
  fold change, GFP: 1.1 fold
TRE3G-GFP reporter gene [1]; FIG. 5C, NT gRNA, 1 nM
  fold change, GFP: 1.1 fold
TRE3G-GFP reporter gene [1]; FIG. 5C, NT gRNA, 2.5 nM
  fold change, GFP: 1.2 fold
TRE3G-GFP reporter gene [1]; FIG. 5C, NT gRNA, 5 nM
  fold change, GFP: 1.5 fold
TRE3G-GFP reporter gene [1]; FIG. 5C, NT gRNA, 7.5 nM
  fold change, GFP: 1.5 fold
TRE3G-GFP reporter gene [1]; FIG. 5C, NT gRNA, 10 nM
  fold change, GFP: 1.4 fold
TRE3G-GFP reporter gene [1]; FIG. 5C, NT gRNA, 25 nM
  fold change, GFP: 1.6 fold
TRE3G-GFP reporter gene [1]; FIG. 5C, NT gRNA, 50 nM
  fold change, GFP: 1.6 fold
TRE3G-GFP reporter gene [1]; FIG. 5C, NT gRNA, 75 nM
  fold change, GFP: 1.5 fold
TRE3G-GFP reporter gene [1]; FIG. 5C, NT gRNA, 100 nM
  fold change, GFP: 1.5 fold
TRE3G-GFP reporter gene [2]; FIG. 5D, 10 nM
  fold change, GFP (Treated vs Non-Treated): 1.9 fold
TRE3G-GFP reporter gene [2]; FIG. 5D, 25 nM
  fold change, GFP (Treated vs Non-Treated): 6.5 fold
TRE3G-GFP reporter gene [2]; FIG. 5D, 50 nM
  fold change, GFP (Treated vs Non-Treated): 17.4 fold
TRE3G-GFP reporter gene [2]; FIG. 5D, 100 nM
  fold change, GFP (Treated vs Non-Treated): 20.8 fold
TRE3G-GFP reporter gene [2]; FIG. 5D, 200 nM
  fold change, GFP (Treated vs Non-Treated): 24.0 fold
TRE3G-GFP reporter gene [2]; FIG. 5D, 400 nM
  fold change, GFP (Treated vs Non-Treated): 27.2 fold
TRE3G-GFP reporter gene [2]; FIG. 5E, 10 nM
  fold change, GFP (Treated vs Non-Treated): 1.1 fold
TRE3G-GFP reporter gene [2]; FIG. 5E, 25 nM
  fold change, GFP (Treated vs Non-Treated): 1.1 fold
TRE3G-GFP reporter gene [2]; FIG. 5E, 50 nM
  fold change, GFP (Treated vs Non-Treated): 1.0 fold
TRE3G-GFP reporter gene [2]; FIG. 5E, 100 nM
  fold change, GFP (Treated vs Non-Treated): 1.1 fold
TRE3G-GFP reporter gene [2]; FIG. 5E, 200 nM
  fold change, GFP (Treated vs Non-Treated): 1.2 fold
TRE3G-GFP reporter gene [2]; FIG. 5E, 400 nM
  fold change, GFP (Treated vs Non-Treated): 1.3 fold
CXCR4 [3]; FIG. 2D, CXCR4 gRNA, 0.5 nM
  fold change, CXCR4 mRNA (CEM Treated vs Non-Treated): 2.5 fold
CXCR4 [3]; FIG. 2D, CXCR4 gRNA, 1 nM
  fold change, CXCR4 mRNA (CEM Treated vs Non-Treated): 7.4 fold
CXCR4 [3]; FIG. 2D, CXCR4 gRNA, 5 nM
  fold change, CXCR4 mRNA (CEM Treated vs Non-Treated): 28.2 fold
CXCR4 [3]; FIG. 2D, CXCR4 gRNA, 25 nM
  fold change, CXCR4 mRNA (CEM Treated vs Non-Treated): 48.2 fold
CXCR4 [3]; FIG. 2D, CXCR4 gRNA, 50 nM
  fold change, CXCR4 mRNA (CEM Treated vs Non-Treated): 34.6 fold
CXCR4 [3]; FIG. 2D, NT gRNA, 0.5 nM
  fold change, CXCR4 mRNA (CEM Treated vs Non-Treated): 1.17 fold
CXCR4 [3]; FIG. 2D, NT gRNA, 1 nM
  fold change, CXCR4 mRNA (CEM Treated vs Non-Treated): 0.77 fold
CXCR4 [3]; FIG. 2D, NT gRNA, 5 nM
  fold change, CXCR4 mRNA (CEM Treated vs Non-Treated): 1.47 fold
CXCR4 [3]; FIG. 2D, NT gRNA, 25 nM
  fold change, CXCR4 mRNA (CEM Treated vs Non-Treated): 2.21 fold
CXCR4 [3]; FIG. 2D, NT gRNA, 50 nM
  fold change, CXCR4 mRNA (CEM Treated vs Non-Treated): 1.88 fold
CXCR4 [3]; FIG. 2D, concentrations above 5 nM
  CXCR4 activation compared to dCas9-p300: higher CXCR4 activation
CXCR4 [3]; 24 h
  fold change, CXCR4 mRNA (CXCR4 gRNA vs NT gRNA): 18.6 fold
CXCR4 [3]; 48 h
  fold change, CXCR4 mRNA (CXCR4 gRNA vs NT gRNA): 13.1 fold
  fold change, CXCR4 mRNA (washout vs AP1867 competition): 1.2 fold
CXCR4 [3]; 48 h AP1867 (washout with 20 μM AP1867 after 24 hrs)
  fold change, CXCR4 mRNA (CXCR4 gRNA vs NT gRNA): 8.3 fold
CXCR4 [3]; 48 h wash (media washout after 24 hrs)
  fold change, CXCR4 mRNA (CXCR4 gRNA vs NT gRNA): 10.5 fold
CXCR4 [3]; 72 h
  fold change, CXCR4 mRNA (CXCR4 gRNA vs NT gRNA): 6.8 fold
  fold change, CXCR4 mRNA (washout vs AP1867 competition): 2.4 fold
CXCR4 [3]; 72 h AP1867 (washout with 20 μM AP1867 after 24 hrs)
  fold change, CXCR4 mRNA (CXCR4 gRNA vs NT gRNA): 4.2 fold
CXCR4 [3]; 72 h wash (media washout after 24 hrs)
  fold change, CXCR4 mRNA (CXCR4 gRNA vs NT gRNA): 5.4 fold
CXCR4 [3]; 96 h AP1867 (washout with 20 μM AP1867 after 24 hrs)
  fold change, CXCR4 mRNA (CXCR4 gRNA vs NT gRNA): 2.1 fold
CXCR4 [3]; 96 h wash (media washout after 24 hrs)
  fold change, CXCR4 mRNA (CXCR4 gRNA vs NT gRNA): 4.3 fold
CXCR4 [3]; 96 h
  fold change, CXCR4 mRNA (washout vs AP1867 competition): 0.57 fold
CXCR4 [3]; NT gRNA, 12 h
  fold change, CXCR4 mRNA (Compare to 0 h): 0.1 fold
CXCR4 [3]; NT gRNA, 24 h
  fold change, CXCR4 mRNA (Compare to 0 h): 0.6 fold
CXCR4 [3]; NT gRNA, 48 h
  fold change, CXCR4 mRNA (Compare to 0 h): 0.7 fold
CXCR4 [3]; NT gRNA, 48 h AP1867 (washout with 20 μM AP1867 after 24 hrs)
  fold change, CXCR4 mRNA (Compare to 0 h): 0.7 fold
CXCR4 [3]; NT gRNA, 48 h wash (media washout after 24 hrs)
  fold change, CXCR4 mRNA (Compare to 0 h): 0.8 fold
CXCR4 [3]; NT gRNA, 72 h
  fold change, CXCR4 mRNA (Compare to 0 h): 0.6 fold
CXCR4 [3]; NT gRNA, 72 h AP1867 (washout with 20 μM AP1867 after 24 hrs)
  fold change, CXCR4 mRNA (Compare to 0 h): 0.3 fold
CXCR4 [3]; NT gRNA, 72 h wash (media washout after 24 hrs)
  fold change, CXCR4 mRNA (Compare to 0 h): 0.4 fold
CXCR4 [3]; NT gRNA, 96 h
  fold change, CXCR4 mRNA (Compare to 0 h): 0.5 fold
CXCR4 [3]; NT gRNA, 96 h AP1867 (washout with 20 μM AP1867 after 24 hrs)
  fold change, CXCR4 mRNA (Compare to 0 h): 0.6 fold
CXCR4 [3]; NT gRNA, 96 h wash (media washout after 24 hrs)
  fold change, CXCR4 mRNA (Compare to 0 h): 0.6 fold
CXCR4 [3]; FIGS. 3C and 3D, CEM203 50 nM or CEM207 25 nM for 24 hours, then media exchange, all time points
  CXCR4 mRNA expression after CEM washout in comparison to cells continuously treated: significantly lowered CXCR4 mRNA expression
CXCR4 [3]; time course 12, 24, 48, 72, 96 hrs, CXCR4 gRNA
  time point of highest (peak) CXCR4 mRNA activation: 24 h
CXCR4 [4]; 50 nM
  fold change, CXCR4 mRNA (CXCR4 gRNA vs NT gRNA): 4.2 fold
CXCR4 [4]; 200 nM
  fold change, CXCR4 mRNA (CXCR4 gRNA vs NT gRNA): 9.1 fold
